Test [1] concerns E. coli H16. It is filed as cell-based. Conditions: for BDA: Table 42.
Test [2] deals with E. coli H16.
A further test concerns Salmonella 34576. Conditions: Table 43.
The subject of a further test is E. coli. Kind of test: MIC assays, summary of modified PMB's. The conditions noted are these: relative to PMB.
Another test deals with S. aureus. Kind of test: MIC testing against S. aureus. The format is cell-based, Staph. aureus. Conditions: for activity against S. aureus (in words): controls at concentrations used in the derivatization. The procedure:
1.5 ml fractions were collected. The fractions in the void volume were pooled and sterile filtered. The activity of the conjugate was determined by standard MIC testing against S. aureus.

A further test addresses type I pili (Escherichia coli, UniProt P08191).
Test [3] deals with J5 bacteria phagocytosed by J774A.1 mouse macrophage cell line. It is filed as cell-based.
For test [4], the system named is Staphylococcus epidermidis. Kind of test: MIC and MBC. The format is cell-based.
The mark [5] stands for this setting: Table 40, first number of the cell.
Where [6] appears, read: concentration expressed as absorbance at 280 nm.

As a reminder, the MBC is the lowest tested concentration that kills the bacteria rather than only halting them.

Converted amounts (≈) assume the structure as drawn. Like-named read-outs stand apart in the source and are kept apart here. Bridge positions count the residues as written; N and C are the ends. Square brackets hold non-standard residues; d marks the D form. Peptide text beside a SMILES is read from it. * marks the point of attachment. Fluorescein(5-Mal) = O=C1OC2(c3ccc(O)cc3Oc3cc(O)ccc32)c2ccc(N3C(=O)CC(*)C3=O)cc21; Ileψ(thiazoline)Cys = CC[C@H](C)[C@H](N)C1=N[C@H](C(=O)*)CS1; Succinimide(1-Et,3-yl) = CCN1C(=O)CC(*)C1=O; dOrn = NCCC[C@@H](N)C(=O)O

Chain of type I pili (P08191 22-300): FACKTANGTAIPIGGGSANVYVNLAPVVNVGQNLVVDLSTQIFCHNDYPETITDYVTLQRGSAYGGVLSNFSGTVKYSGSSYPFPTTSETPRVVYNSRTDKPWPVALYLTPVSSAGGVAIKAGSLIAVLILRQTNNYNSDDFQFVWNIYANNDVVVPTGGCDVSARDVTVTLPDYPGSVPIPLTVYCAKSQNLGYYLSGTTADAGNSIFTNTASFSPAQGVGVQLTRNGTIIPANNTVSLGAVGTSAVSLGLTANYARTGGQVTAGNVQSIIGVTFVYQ
Chain of type I pili (P08190 24-167 partner): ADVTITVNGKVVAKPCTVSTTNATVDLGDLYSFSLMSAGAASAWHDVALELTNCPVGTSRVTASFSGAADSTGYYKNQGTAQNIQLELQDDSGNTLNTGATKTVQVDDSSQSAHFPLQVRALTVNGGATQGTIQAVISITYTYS
Chain of type I pili (P08189 23-176 partner limits assumed): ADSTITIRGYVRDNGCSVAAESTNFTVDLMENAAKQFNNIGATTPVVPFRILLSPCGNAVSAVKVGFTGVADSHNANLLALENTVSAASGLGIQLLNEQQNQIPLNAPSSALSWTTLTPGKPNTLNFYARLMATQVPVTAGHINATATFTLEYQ
Chain of type I pili (P04128 24-182 partner): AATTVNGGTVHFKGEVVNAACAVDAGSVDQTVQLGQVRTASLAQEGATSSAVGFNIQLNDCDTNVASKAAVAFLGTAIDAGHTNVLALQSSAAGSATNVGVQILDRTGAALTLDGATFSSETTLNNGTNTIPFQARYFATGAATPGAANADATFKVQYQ

For “ala-leu-tyr-lys-lys-leu-leu-lys-lys-leu-leu-lys-ser-ala-lys-lys-leu-gly-cys-amide [C19G]”, in the test with E. coli H16 [1], the “lower activity than C18G” value is “about 5 fold” and the BDA was in the range of 25 to 50 µg/mL.
In the case of `CCN1C(=O)CC(SC[C@H](NC(=O)CNC(=O)[C@H](CC(C)C)NC(=O)[C@H](CCCCN)NC(=O)[C@H](CCCCN)NC(=O)[C@H](C)NC(=O)[C@H](CO)NC(=O)[C@H](CCCCN)NC(=O)[C@H](CC(C)C)NC(=O)[C@H](CC(C)C)NC(=O)[C@H](CCCCN)NC(=O)[C@H](CCCCN)NC(=O)[C@H](CC(C)C)NC(=O)[C@H](CC(C)C)NC(=O)[C@H](CCCCN)NC(=O)[C@H](CCCCN)NC(=O)[C@H](Cc2ccc(O)cc2)NC(=O)[C@H](CC(C)C)NC(=O)[C@H](C)N)C(N)=O)C1=O` (stereo partly drawn) [C19G-NEM] (H-ALYKKLLKKLLKSAKKLGC(Succinimide(1-Et,3-yl))-NH2; N-terminus assumed), the values for the MIC with E. coli 0111:B4 (0111:B4), in the test on E. coli H16 [2] and with Salmonella 34576 were 6 µg/mL (≈ 2.64 µM), 10 µg/mL (≈ 4.4 µM) and 6 µg/mL (≈ 2.64 µM), respectively. This compound displayed a BDA in the test on E. coli H16 [1] of 2.5 to 5 µg/mL.
In the test on E. coli 0111:B4 (setting [5]), “Lysyl S-Succinamidyl (Fluorescein) PMB [PMB-Lys-FL]” came in with an MIC of 1 µg/mL.
For Lysyl-PMB [PMB-Lys], the “antibiotic activity (in words)” value with E. coli is listed as “Active”. Also, the MIC with E. coli 0111:B4 (setting [5]) was 2.0 µg/mL; in the test with E. coli 0111:B4 (Table 41), 2 µg/mL.
Consider Polymyxin B-fluoroscein [PMB-NHS-FL], for which, in the test on E. coli HB101, the “loss of anti-bacterial activity relative to PMB” value was 10-20 fold. The MIC with E. coli HB101 (Table 44) was 0.8 to 1 µg/mL.
Compound `CC1=C(C(=O)O)N2C(=O)[C@@H](NC(=O)[C@H](N)c3ccc(O)cc3)[C@H]2SC1` [native cefadroxil, cefadroxil] had an MIC with S. aureus (setting [6]) of 0.028 A280.
With “S-(Acetomidomethyl)cysteinyl PMB [PMB-Cys (ACM)]”, the MIC turned out to be 1.2 µg/mL against E. coli 0111:B4 (setting [5]) and 5 µg/mL against E. coli 0111:B4 (Table 41).
As to Monoalanyl PMB [PMB-Ala], the “antibiotic activity (in words)” value in the test on E. coli is listed as “Active”. The MIC with E. coli 0111:B4 (setting [5]) was 0.7 µg/mL; in the test on E. coli 0111:B4 (Table 41), 0.8 to 2 µg/mL.
On to `CC1(C)S[C@@H]2[C@H](NC(=O)[C@H](N)c3ccc(O)cc3)C(=O)N2[C@H]1C(=O)O` [native amoxicillin, amoxicillin], for which the MIC in the test on S. aureus is 250 µg/mL (≈ 684 µM).
On to `OCCS` [beta-mercaptoethanol], for which the “activity against S. aureus (in words)” value with S. aureus was “inactive”.
Compound `CC(=O)OCC1=C(C(=O)O)N2C(=O)[C@@H](N)[C@H]2SC1` [7-aminocephalosporanic acid] showed an MIC against S. aureus (setting [6]) of 3.7 A280.
In the case of Imminothiolated PMB [PMB-Traut's], the “loss of anti-bacterial activity relative to PMB” value in the test on E. coli HB101 is reported as 40-80 fold. For the same compound, the MIC in the test on E. coli HB101 (Table 41) was 4 µg/mL.
Take PMB-NHCOCH2SCOCH3 [PMB-SATA]: the “antibiotic activity (in words)” value in the test with E. coli is listed as “Less Active”. Besides, the “loss of anti-bacterial activity relative to PMB” value in the test on E. coli HB101 is reported as “about 10 fold”. In the test on E. coli HB101 (Table 41), the MIC amounted to 0.6 µg/mL.
“α-Boc-ε{flourescein) thiocarbamoyl}-lysyl PMB [PMB-Boc-Lys-FL]”: in the test on E. coli 0111:B4 (setting [5]), the MIC amounted to 12.5 µg/mL.
As for `O=C(Nc1ccc(O[C@H]2O[C@H](CO)[C@@H](O)[C@H](O)[C@@H]2O)cc1)c1ccccc1` [N-benzoyl derivative, 4-Benzamidophenyl-α-D-mannopyranoside], the “activity relative to methyl α-mannopyranoside” value on type I pili was determined as 1000 fold.
With `NCCO` [ethanolamine], the “activity against S. aureus (in words)” value in the test on S. aureus is “inactive”.
The compound “S-hydroxyethylthio maleimidomethyl cyclohexane carboxyl-N-cefadroxil ester” displayed an MIC against S. aureus (setting [6]) of 1.6 A280.
Turning to “S-Acetylmercaptosuccinyl PMB [PMB-SAMSA]”, the MIC in the test on E. coli 0111:B4 (setting [5]) is 3.1 µg/mL; with E. coli 0111:B4 (Table 41) it was 3 µg/mL; in the test on E. coli HB101 (Table 41), 0.5 to 3 µg/mL. For the same compound, the “loss of anti-bacterial activity relative to PMB” value in the test on E. coli HB101 was 10-30 fold.
For the compound `O=C(ON1C(=O)CC(S(=O)(=O)O)C1=O)c1cccc(N2C(=O)C=CC2=O)c1` (stereo not drawn) [Sulfo-MBS, m-Maleimidobenzoyl-N-hydroxysulfosuccinimide ester], the “activity against S. aureus (in words)” value with S. aureus is “inactive”.
For the compound `N[C@@H](Cc1ccccc1)C(=O)Nc1ccc(O[C@H]2O[C@H](CO)[C@@H](O)[C@H](O)[C@@H]2O)cc1` [4-(N-phenylalanyl)-aminophenyl-α-D-mannopyranoside], the “activity relative to methyl α-mannopyranoside” value at type I pili was “approximately 1000 fold”.
In the case of `CC(C)C[C@H](NC(=O)[C@H](C)N)C(=O)N[C@@H](Cc1ccc(O)cc1)C(=O)N[C@@H](CCCCN)C(=O)N[C@@H](CCCCN)C(=O)N[C@@H](CC(C)C)C(=O)N[C@@H](CC(C)C)C(=O)N[C@@H](CCCCN)C(=O)N[C@@H](CCCCN)C(=O)N[C@@H](CC(C)C)C(=O)N[C@@H](CC(C)C)C(=O)N[C@@H](CCCCN)C(=O)N[C@@H](CO)C(=O)N[C@@H](C)C(=O)N[C@@H](CCCCN)C(=O)N[C@@H](CCCCN)C(=O)N[C@@H](CC(C)C)C(=O)NCC(=O)N[C@@H](CSC1CC(=O)N(c2ccc3c(c2)C(=O)OC32c3ccc(O)cc3Oc3cc(O)ccc32)C1=O)C(N)=O` (stereo partly drawn) [C19G-Mal-FL] (H-ALYKKLLKKLLKSAKKLGC(Fluorescein(5-Mal))-NH2; N-terminus assumed), the MIC in the test on E. coli H16 [2] worked out at 10 µg/mL (≈ 3.89 µM). The “% Macrophage with phagocytosed bacteria” value in test [3] (Table 61 (repeat assay), 1×10^8 J5 bacteria opsonized, from 100 macrophage examined, conjugates 0.5 ug/ml, anti-avidin 1/400, anti-fluorescein antibody 14 ug/ml) worked out at 8%. In test [3] (with anti-fluorescein antibody), the “enhancement of phagocytosis (in words)” value is recorded as “prevents the C19g-Mal-FL conjugate from enhancing bacterial phagocytosis”.
Consider “α,ε-di-t-Butoxycarbonyl-lysyl-PMB [α,ε-di-t-butoxycarbonyl lysyl derivative]”, for which the “antibiotic activity (in words)” value in the test with E. coli is “significantly less active”.
For “S-(Acetomidomethyl)-t-butoxycarbonylcysteinyl PMB [PMB-Boc-Cys (ACM)]”, the MIC was found to be 6.0 µg/mL against E. coli 0111:B4 (setting [5]) and 5 µg/mL against E. coli 0111:B4 (Table 41).
On to `CC1(C)S[C@@H]2[C@H](N)C(=O)N2[C@H]1C(=O)O` [native aminopenicillanic acid, 6-aminopenicillanic acid], for which the MIC in the test with S. aureus (Staphylococcus aureus, read-out: MIC) was 250 µg/mL (≈ 1160 µM).
In test [4] (Table 25), `CC[C@H](C)[C@H](N)C1=N[C@H](C(=O)N[C@@H](CC(C)C)C(=O)N[C@H](CCC(=O)O)C(=O)N[C@H](C(=O)N[C@H]2CCCCNC(=O)[C@H](CC(N)=O)NC(=O)[C@@H](CC(=O)O)NC(=O)[C@H](Cc3cnc[nH]3)NC(=O)[C@@H](Cc3ccccc3)NC(=O)[C@H]([C@@H](C)CC)NC(=O)[C@@H](CCCN)NC2=O)[C@@H](C)CC)CS1` [Bacitracin] ({Ileψ(thiazoline)Cys}-L[dE]IK[dOrn]I[dF]H[dD]N; lactam 4-C) showed an MIC of 25 µg/mL (≈ 17.6 µM). Also, the minimal bactericidal concentration (MBC) in test [4] (Table 25, read-out: MBC) turned out to be 50 µg/mL (≈ 35.1 µM).
As for Cysteinyl-PMB [PMB-Cys], in the test with E. coli, the “antibiotic activity (in words)” value was “Active”. The MIC against E. coli 0111:B4 (setting [5]) is 0.7 µg/mL; against E. coli 0111:B4 (Table 41) it was 0.8 to 1 µg/mL.
For the compound `CC(C)C[C@H](NC(=O)[C@H](Cc1ccccc1)NC(=O)[C@H](CCCNC(=N)N)NC(=O)[C@H](CCCCN)NC(=O)[C@H](CCC(N)=O)NC(=O)[C@H](C)NC(=O)[C@H](CCCCN)NC(=O)[C@H](Cc1c[nH]c2ccccc12)NC(=O)[C@H](CCCCN)NC(=O)[C@@H](N)CS)C(=O)N[C@@H](CCCCN)C(=O)O` [C90-99, cys-lys-trp-lys-ala-gln-lys-arg-phe-leu-lys, reference compound], the MIC against E. coli 0111:B4 (0111:B4) and with E. coli HB101 (HB101) was greater than 75 µg/mL throughout.
Take “PMB-S-Mercaptosuccinyl-succinimidyl-fluorescein [PMB-SAMSA-Mal-FL]”: the figures for the MIC in the test on E. coli 0111:B4 (setting [5]) and in the test with E. coli 0111:B4 (Table 44) were 10 µg/mL and 4 to 20 µg/mL, respectively.
“t-butoxycarbonyl-alanine-polymyxin B [PMB-BOC-Ala]” gave an MIC in the test on E. coli 0111:B4 (Table 41) of 2 µg/mL.
Take “S-hydroxyethylthio-maleimidobenzoyl-N-aminocephalosporanic acid ester”: the MIC in the test on S. aureus (setting [6]) is 0.86 A280.

These data come from patent publication US6579696B1, “Polymyxin B conjugates” (priority 1992, dated 2003).
